Patent US7297700B2, “Bicycloheteroaryl compounds as P2X7 modulators and uses thereof” (Renovis, Inc., priority 2005, dated 2007)

System: IL-1β release from THP-1 cells
Test: IL-1β Release Assay (Alternate Method), THP-1 cells
Type: cell-based, human
Details: at 0.3 μM; THP-1 cells
Procedure: THP-1 cells (ATCC Cat #285-IF-100) are plated in 96 well plates at a concentration of 200,000 cells per well and allowed to differentiate in RPMI-1640 media (ATCC Cat #30-2001) containing 10% FBS, 100 IU/mL penicillin, 100 ug/mL streptomycin, 100 ng/mL LPS and 100 ng/mL IFN-γ for 16 hours. Following differentiation, the cells are treated for an additional 2 hours in RPMI-1640 media containing 100 IU/mL penicillin, 100 ug/mL streptomycin and fresh LPS at 100 ng/mL. The cells are then pretreated for 30 minutes with the compound of interest at the appropriate concentration in RPMI media containing 100 IU/mL penicillin, 100 ug/mL streptomycin. Following the pretreatment 2′, 3′-O-(4-benzoylbenzoyl)-adenosine 5′-triphosphate (Sigma Aldrich Cat#B6396) is added to a final concentration of 250 uM and the cells incubated for an additional 45 minutes. 30 uL of cell supernatant is then collected and IL-1β levels determined via ELISA (R&D systems Cat. #HSLB50) according to manufacturer's recommendations using the Tecan Safire plate reader. Background adjusted IL-1β levels of drug treated and non-treated cells are used to calculate the percent inhibition.

Q: Which IL-1β % inhibition does the source give for `O=C(CC12CC3CC(CC(C3)C1)C2)Nc1ncnc2c1CCN(C(=O)c1c(F)cccc1Cl)C2` [Compound 272] here?
A: ++++ (compound exhibited 75% or greater inhibition at 0.3 μM)

Q: `O=C(CC12CC3CC(CC(C3)C1)C2)Nc1ncnc2c1CCN(C(=O)c1cccnc1)C2` [Compound 237] was tested. Which IL-1β % inhibition did it give?
A: + (compound exhibited 0-25% inhibition at 0.3 μM)

Q: `CC(C)(C(=O)Nc1ncnc2c1CCN(Cc1ccccc1F)C2)C12CC3CC(CC(C3)C1)C2` [Compound 369] was tested. Which IL-1β % inhibition did it give?
A: + (compound exhibited 0-25% inhibition at 0.3 μM)

Q: How did the IL-1β % inhibition turn out when `Cc1cc(C)cc(S(=O)(=O)N2CCc3c(ncnc3NC(=O)CC34CC5CC(CC(C5)C3)C4)C2)c1` [Compound 217] was run?
A: + (compound exhibited 0-25% inhibition at 0.3 μM)

Q: For `COc1ccccc1CCC(=O)Nc1ncnc2c1CCN(Cc1c[nH]cn1)C2` [Compound 135], which IL-1β % inhibition is on record?
A: + (compound exhibited 0-25% inhibition at 0.3 μM)

Q: `O=C(CC12CC3CC(CC(C3)C1)C2)Nc1ncnc2c1CCN(Cc1cc(F)cc(C(F)(F)F)c1)C2` [Compound 108] was tested. Which IL-1β % inhibition did it give?
A: + (compound exhibited 0-25% inhibition at 0.3 μM)

Q: Which IL-1β % inhibition does the source give for `CC(c1ccc2c(c1)OCCO2)N1CCc2c(ncnc2NC(=O)CC23CC4CC(CC(C4)C2)C3)C1` (centres unmarked) [Compound 317] here?
A: + (compound exhibited 0-25% inhibition at 0.3 μM)

Q: `O=C(CC12CC3CC(CC(C3)C1)C2)Nc1ncnc2c1CCN(C(=O)c1ccc(Cl)cc1Cl)C2` [Compound 258] was tested. Which IL-1β % inhibition did it give?
A: ++++ (compound exhibited 75% or greater inhibition at 0.3 μM)

Q: `CC12CC3CC(C)(C1)CC(CC(=O)Nc1ncnc4c1CCN(Cc1ccc(F)cc1F)C4)(C3)C2` [Compound 374] was tested. Which IL-1β % inhibition did it give?
A: ++ (compound exhibited 25-50% inhibition at 0.3 μM)

Q: For `O=C(CC12CC3CC(CC(C3)C1)C2)Nc1ncnc2c1CCN(Cc1ccc3ccccc3n1)C2` [Compound 73], which IL-1β % inhibition is on record?
A: + (compound exhibited 0-25% inhibition at 0.3 μM)

Q: For `O=C(CC12CC3CC(CC(C3)C1)C2)Nc1ncnc2c1CCN(S(=O)(=O)c1ccccc1-c1ccccc1)C2` [Compound 194], which IL-1β % inhibition is on record?
A: ++++ (compound exhibited 75% or greater inhibition at 0.3 μM)

Q: With `COc1ccc(CC(=O)N2CCc3c(ncnc3NC(=O)CC34CC5CC(CC(C5)C3)C4)C2)cc1` [Compound 224] as the compound, how does the IL-1β % inhibition read?
A: + (compound exhibited 0-25% inhibition at 0.3 μM)

Q: With `O=C(CC12CC3CC(CC(C3)C1)C2)Nc1ncnc2c1CCN(Cc1ccc(OCCO)cc1)C2` [Compound 99] as the compound, how does the IL-1β % inhibition read?
A: + (compound exhibited 0-25% inhibition at 0.3 μM)

Q: How did the IL-1β % inhibition turn out when `NC(=O)COc1ccc(CN2CCc3c(ncnc3NC(=O)CC34CC5CC(CC(C5)C3)C4)C2)cc1` [Compound 91] was run?
A: + (compound exhibited 0-25% inhibition at 0.3 μM)

Q: `O=C(CC12CC3CC(CC(C3)C1)C2)Nc1ncnc2c1CCN(C(=O)c1c(Cl)cccc1Cl)C2` [Compound 218] was tested. Which IL-1β % inhibition did it give?
A: ++++ (compound exhibited 75% or greater inhibition at 0.3 μM)

Q: With `O=C(CC1CCCCCC1)Nc1ncnc2c1CCN(CC1CCCCC1)C2` [Compound 127] as the compound, how does the IL-1β % inhibition read?
A: + (compound exhibited 0-25% inhibition at 0.3 μM)

Q: `O=C(CC12CC3CC(CC(C3)C1)C2)Nc1ncnc2c1CCN(S(=O)(=O)c1ccc(F)cc1Cl)C2` [Compound 211] was tested. Which IL-1β % inhibition did it give?
A: + (compound exhibited 0-25% inhibition at 0.3 μM)

Q: For `O=C(CC12CC3CC(CC(C3)C1)C2)Nc1ncnc2c1CCN(C(=O)c1ccc(C(F)(F)F)cc1F)C2` [Compound 266], which IL-1β % inhibition is on record?
A: + (compound exhibited 0-25% inhibition at 0.3 μM)

Q: For `Cc1nn(C)c(C)c1S(=O)(=O)N1CCc2c(ncnc2NC(=O)CC23CC4CC(CC(C4)C2)C3)C1` [Compound 198], which IL-1β % inhibition is on record?
A: + (compound exhibited 0-25% inhibition at 0.3 μM)

Q: For `CC12CC3CC(C)(C1)CC(CC(=O)Nc1ncnc4c1CCN(Cc1ccc(F)cc1)C4)(C3)C2` [Compound 376], which IL-1β % inhibition is on record?
A: ++ (compound exhibited 25-50% inhibition at 0.3 μM)

Q: How did the IL-1β % inhibition turn out when `COc1ccccc1C(=O)N1CCc2c(ncnc2NC(=O)CC23CC4CC(CC(C4)C2)C3)C1` [Compound 292] was run?
A: +++ (compound exhibited 50-75% inhibition at 0.3 μM)

Q: How did the IL-1β % inhibition turn out when `O=C(CC12CC3CC(CC(C3)C1)C2)Nc1ncnc2c1CCN(Cc1cccc(F)c1)C2` [Compound 33] was run?
A: + (compound exhibited 0-25% inhibition at 0.3 μM)

Q: How did the IL-1β % inhibition turn out when `Cc1cccc(C(=O)N2CCc3c(ncnc3NC(=O)C(C)(C)C34CC5CC(CC(C5)C3)C4)C2)c1` [Compound 358] was run?
A: + (compound exhibited 0-25% inhibition at 0.3 μM)

Q: For `O=C(CC12CC3CC(CC(C3)C1)C2)Nc1ncnc2c1CCN(Cc1cccc(C(F)(F)F)c1F)C2` [Compound 131], which IL-1β % inhibition is on record?
A: + (compound exhibited 0-25% inhibition at 0.3 μM)

Q: Which IL-1β % inhibition does the source give for `Cc1ccc(CN2CCc3c(ncnc3NC(=O)CC34CC5CC(CC(C5)C3)C4)C2)cc1` [Compound 44] here?
A: + (compound exhibited 0-25% inhibition at 0.3 μM)

Q: `O=C(CC12CC3CC(CC(C3)C1)C2)Nc1ncnc2c1CCN(Cc1cccc3c1OC(F)(F)O3)C2` [Compound 90] was tested. Which IL-1β % inhibition did it give?
A: + (compound exhibited 0-25% inhibition at 0.3 μM)

Q: Which IL-1β % inhibition does the source give for `N#Cc1ccc(S(=O)(=O)N2CCc3c(ncnc3NC(=O)CC34CC5CC(CC(C5)C3)C4)C2)cc1` [Compound 167] here?
A: ++ (compound exhibited 25-50% inhibition at 0.3 μM)

Q: Which IL-1β % inhibition does the source give for `O=C(CC12CC3CC(CC(C3)C1)C2)Nc1ncnc2c1CCN(C(=O)c1ccc(Cl)c(Cl)c1)C2` [Compound 245] here?
A: +++ (compound exhibited 50-75% inhibition at 0.3 μM)

Q: `CC(C)(C(=O)Nc1ncnc2c1CCN(S(=O)(=O)Cc1ccccc1)C2)C12CC3CC(CC(C3)C1)C2` [Compound 353] was tested. Which IL-1β % inhibition did it give?
A: + (compound exhibited 0-25% inhibition at 0.3 μM)

Q: Which IL-1β % inhibition does the source give for `O=C(O)C=Cc1ccc(CN2CCc3c(ncnc3NC(=O)CC34CC5CC(CC(C5)C3)C4)C2)cc1` [Compound 115] here?
A: + (compound exhibited 0-25% inhibition at 0.3 μM)

Q: `O=C(CC12CC3CC(CC(C3)C1)C2)Nc1ncnc2c1CCN(Cc1cccc(Oc3ccccc3)c1)C2` [Compound 68] was tested. Which IL-1β % inhibition did it give?
A: + (compound exhibited 0-25% inhibition at 0.3 μM)

Q: `O=C(CC12CC3CC(CC(C3)C1)C2)Nc1ncnc2c1CCN(C(=O)c1ccccc1Cl)C2` [Compound 294] was tested. Which IL-1β % inhibition did it give?
A: +++ (compound exhibited 50-75% inhibition at 0.3 μM)

Q: For `O=C(CC12CC3CC(CC(C3)C1)C2)Nc1ncnc2c1CCN(C(=O)C1CCCN1C(=O)C(F)(F)F)C2` (centres unmarked) [Compound 306], which IL-1β % inhibition is on record?
A: + (compound exhibited 0-25% inhibition at 0.3 μM)

Same assay, conditions: at 0.3 μM; THP-1 cells, BzATP-stimulated

Q: How did the IL-1β % inhibition turn out when `O=C(c1ccc(F)cc1F)N1CCc2c(ncnc2NC(=O)C23CC4CC(CC(C4)C2)C3)C1` [Compound 449] was run?
A: ++ (compound exhibited 25-50% inhibition at 0.3 μM)

Q: For `O=C(Nc1ncnc2c1CCN(Cc1ccc(Br)cc1)C2)C12CC3CC(CC(C3)C1)C2` [Compound 597], which IL-1β % inhibition is on record?
A: +++ (compound exhibited 50-75% inhibition at 0.3 μM)

Q: `O=C(Nc1ncnc2c1CCN(CCCc1ccccc1)C2)C12CC3CC(CC(C3)C1)C2` [Compound 559] was tested. Which IL-1β % inhibition did it give?
A: ++ (compound exhibited 25-50% inhibition at 0.3 μM)

Q: `O=C(Nc1ncnc2c1CCN(S(=O)(=O)c1ccc3ccccc3c1)C2)C12CC3CC(CC(C3)C1)C2` [Compound 483] was tested. Which IL-1β % inhibition did it give?
A: +++ (compound exhibited 50-75% inhibition at 0.3 μM)

Q: With `O=C(c1ccc(F)cc1)N1CCc2c(ncnc2NC(=O)C23CC4CC(CC(C4)C2)C3)C1` [Compound 423] as the compound, how does the IL-1β % inhibition read?
A: ++ (compound exhibited 25-50% inhibition at 0.3 μM)

Q: For `O=C(Nc1ncnc2c1CCN(S(=O)(=O)Cc1ccccc1)C2)C12CC3CC(CC(C3)C1)C2` [Compound 491], which IL-1β % inhibition is on record?
A: + (compound exhibited 0-25% inhibition at 0.3 μM)

Q: `O=C(Nc1ncnc2c1CCN(S(=O)(=O)c1ccc(Cl)cc1)C2)C12CC3CC(CC(C3)C1)C2` [Compound 488] was tested. Which IL-1β % inhibition did it give?
A: + (compound exhibited 0-25% inhibition at 0.3 μM)

Q: For `O=C(Nc1ncnc2c1CCN(S(=O)(=O)c1c(F)cccc1F)C2)C12CC3CC(CC(C3)C1)C2` [Compound 540], which IL-1β % inhibition is on record?
A: + (compound exhibited 0-25% inhibition at 0.3 μM)

Q: `N#Cc1ccc(CN2CCc3c(ncnc3NC(=O)C34CC5CC(CC(C5)C3)C4)C2)cc1` [Compound 603] was tested. Which IL-1β % inhibition did it give?
A: + (compound exhibited 0-25% inhibition at 0.3 μM)

Q: How did the IL-1β % inhibition turn out when `O=C(Nc1ncnc2c1CCN(CC1CCCCC1)C2)C12CC3CC(CC(C3)C1)C2` [Compound 556] was run?
A: + (compound exhibited 0-25% inhibition at 0.3 μM)

Q: For `Cc1ccccc1S(=O)(=O)N1CCc2c(ncnc2NC(=O)C23CC4CC(CC(C4)C2)C3)C1` [Compound 533], which IL-1β % inhibition is on record?
A: +++ (compound exhibited 50-75% inhibition at 0.3 μM)

Q: `O=C(Nc1ncnc2c1CCN(CC1CC1)C2)C12CC3CC(CC(C3)C1)C2` [Compound 557] was tested. Which IL-1β % inhibition did it give?
A: + (compound exhibited 0-25% inhibition at 0.3 μM)

Q: With `O=C(Nc1ncnc2c1CCN(S(=O)(=O)c1cc(Cl)cc(Cl)c1)C2)C12CC3CC(CC(C3)C1)C2` [Compound 542] as the compound, how does the IL-1β % inhibition read?
A: + (compound exhibited 0-25% inhibition at 0.3 μM)

Q: How did the IL-1β % inhibition turn out when `O=C(c1cccc(Cl)c1Cl)N1CCc2c(ncnc2NC(=O)C23CC4CC(CC(C4)C2)C3)C1` [Compound 454] was run?
A: ++ (compound exhibited 25-50% inhibition at 0.3 μM)

Q: For `O=C(C(c1ccccc1)c1ccccc1)N1CCc2c(ncnc2NC(=O)C23CC4CC(CC(C4)C2)C3)C1` [Compound 409], which IL-1β % inhibition is on record?
A: + (compound exhibited 0-25% inhibition at 0.3 μM)

Q: With `O=C(Nc1ncnc2c1CCN(Cc1ccc(Cl)cc1F)C2)C12CC3CC(CC(C3)C1)C2` [Compound 635] as the compound, how does the IL-1β % inhibition read?
A: + (compound exhibited 0-25% inhibition at 0.3 μM)

Q: How did the IL-1β % inhibition turn out when `O=C(c1cccc(Cl)c1)N1CCc2c(ncnc2NC(=O)C23CC4CC(CC(C4)C2)C3)C1` [Compound 425] was run?
A: + (compound exhibited 0-25% inhibition at 0.3 μM)
